Measured values as given in EP4125905B1, “REGIMEN FOR TREATING A NEISSERIA GONORRHOEAE INFECTION WITH GEPOTIDACIN” (GlaxoSmithKline Intellectual Property Development Limited, priority 2020, dated 2021).
Values after ≈ are worked out from the molar mass of the structure shown. Read-outs that look alike come from different tables or passages of the source.

Legend:
NG clinical isolate [1] = test: microbe, parasite or virus in culture; assay type: cell-based; conditions: Neisseria gonorrhoeae
NG isolate = assay type: cell-based, Neisseria gonorrhoeae
Protocol: The results were discussed in VanScoy BD et al., A Hollow-Fiber Infection Model to Evaluate the Prevention of On- Therapy Resistance of Neisseria gonorrhoeae to Gepotidacin.
10 mL of an initial bacterial density of 10^6 colony forming units (CFU)/mL was inoculated into the hollow-fiber cartridge (Fibercell Systems, Frederick, MD), utilizing modified FB medium.
Samples were collected for observation of simulated pharmacokinetic profiles and enumeration of bacterial burden over the study duration. All bacterial samples were plated on drug-free and agar supplemented with 2 x the agar MIC value of each respective challenge compound.

[2] = Single-dose saliva, urine and plasma PK of oral gepotidacin in hepatic impairment and matched controls; assay type: in vivo, human; conditions: for urinary exposure (AUC[0-48]) relative to matched healthy controls: 1500 mg orally
Protocol: Gepotidacin exposures were assessed in plasma and other matrices, such as urine, saliva, epithelial lining fluid (ELF), Alveolar Macrophages (AM), cervix, rectum and pharynx, as follows: • 1. Plasma, Epithelial Lining Fluid (ELF) and Alveolar Macrophage (AM) samples: A study to evaluate plasma and pulmonary pharmacokinetics (PK) following intravenous administration of gepotidacin in healthy adult subjects was conducted (see M Hossain, EF Dumont. Population Pharmacokinetic Modeling of Plasma and Epithelial Lining Fluid Data for a Novel Antimicrobial Compound. 54th Annual Interscience Conference on Antimicrobial Agents and Chemotherapy Meeting, 5-9 September 2014, Washington, D.C., USA). • 2. Saliva, Urine and plasma samples: • a. A single-dose study to assess the PK of oral gepotidacin in male and female adult participants with varying degrees of hepatic impairment and in matched control participants with normal hepatic function (J. Hands et al. Pharmacokinetics of Gepotidacin in Subjects with Hepatic Impairment. ID Week, 2-6 October 2019, Washington DC, USA) • b. A single-dose study to assess the PK of gepotidacin in adult subjects with varying degrees of renal impairment and in matched control subjects with normal renal function • 3. Urine, plasma, cervix, rectum and pharynx swabs: In a Phase 2a, single-center, single-arm, open-label study in the Unites States from July 2018 to January 2019 (see Overcash et al., Open Forum Infectious Diseases, Volume 6, Issue Supplement 2, October 2019, Page S539, https://doi.org/10.1093/ofid/ofz360.1343), a total of 22 female participants with uncomplicated Urinary Tract Infection (uUTI) were enrolled and evaluated for pharmacokinetics (PK), safety, and clinical efficacy. […] Gepotidacin exposures in urine, cervix, rectum and pharynx were assessed.
(§1) Saliva, Urine and Plasma concentrations were determined after administration of gepotidacin 750 mg IV (healthy and renally impaired subjects) and 1500 mg orally (healthy and hepatically impaired subjects, as well as uUTI patients). […]

NG clinical isolate [3] = test: MIC determination in fastidious broth (FB) medium modified to lack agarose; assay type: cell-based; conditions: Neisseria gonorrhoeae, read-out: gepotidacin broth MIC
Protocol: The NG clinical isolate evaluated was known to be ciprofloxacin-resistant (minimum inhibitory concentration [MIC]= 2 mg/L), susceptible to ceftriaxone (MIC = 0.004 mg/L), and with a gepotidacin agar/broth MIC of 1/0.5 mg/L. The isolate was collected during the Phase 2 clinical study mentioned above, and contained the mutation, ParC D86N.
In order to evaluate the MIC of each challenge compound under the liquid conditions utilized in the HFIM, MIC values were determined using fastidious broth (FB) medium modified to lack agarose.

[4] = Plasma and pulmonary (ELF, AM) pharmacokinetics after intravenous gepotidacin in healthy adult subjects; assay type: in vivo, human
Protocol: (§2) Gepotidacin exposures were assessed in plasma and other matrices, such as urine, saliva, epithelial lining fluid (ELF), Alveolar Macrophages (AM), cervix, rectum and pharynx, as follows: • 1. Plasma, Epithelial Lining Fluid (ELF) and Alveolar Macrophage (AM) samples: A study to evaluate plasma and pulmonary pharmacokinetics (PK) following intravenous administration of gepotidacin in healthy adult subjects was conducted (see M Hossain, EF Dumont. Population Pharmacokinetic Modeling of Plasma and Epithelial Lining Fluid Data for a Novel Antimicrobial Compound. 54th Annual Interscience Conference on Antimicrobial Agents and Chemotherapy Meeting, 5-9 September 2014, Washington, D.C., USA). • 2. Saliva, Urine and plasma samples: • a. A single-dose study to assess the PK of oral gepotidacin in male and female adult participants with varying degrees of hepatic impairment and in matched control participants with normal hepatic function (J. Hands et al. Pharmacokinetics of Gepotidacin in Subjects with Hepatic Impairment. ID Week, 2-6 October 2019, Washington DC, USA) • b. A single-dose study to assess the PK of gepotidacin in adult subjects with varying degrees of renal impairment and in matched control subjects with normal renal function • 3. Urine, plasma, cervix, rectum and pharynx swabs: In a Phase 2a, single-center, single-arm, open-label study in the Unites States from July 2018 to January 2019 (see Overcash et al., Open Forum Infectious Diseases, Volume 6, Issue Supplement 2, October 2019, Page S539, https://doi.org/10.1093/ofid/ofz360.1343), a total of 22 female participants with uncomplicated Urinary Tract Infection (uUTI) were enrolled and evaluated for pharmacokinetics (PK), safety, and clinical efficacy. Participants were confined to the clinic from baseline (Days -1 to 1 predose) through on-therapy (Days 1 to 5) and returned as outpatients for test-of-cure (TOC; Days 10 to 13) and follow-up (Day 28t3). Participants received oral gepotidacin 1,500 mg twice daily (BID) for 5 days. […] The majority of participants were white, age ranged from 19 to 60 years, and body mass index ranged from 20.9 to 37.9 kg/m^2. The number of past uUTI episodes ranged from 0 to 10 over the past 12 months across participants; the majority of participants reported ≤2 episodes. The mean total clinical symptom score at baseline was 7.9 (range: 4 to 12). All participants reported frequency and urgency, and all but 1 participant (5%) reported dysuria. Gepotidacin exposures in urine, cervix, rectum and pharynx were assessed.
Plasma, Epithelial Lining Fluid (ELF) and Alveolar Macrophage (AM) PK were assessed following a single IV infusion of 1000 mg gepotidacin over 2 hours. […] Concentrations in AM and ELF changed in a similar manner as in plasma over the 12-hour sampling period.

[5] = Phase 2a study in female participants with uUTI: urine, plasma, cervical, rectal and pharyngeal swab PK and safety; assay type: in vivo, human
Protocol: as §2
Plasma, cervix, rectum and pharynx swabs were collected after administration of gepotidacin 1500 mg BID to uUTI patients. […] TABLE 1 Summary of gepotidacin cervical, rectal, pharyngeal, and free plasma concentration time data (µg/ml) (pharmacokinetic population)

[6] = Safety and pharmacokinetics in healthy adults and adolescents; assay type: in vivo, human
Protocol: Healthy adults and adolescents within the age ranges of 19-64 and 12-17 years old, respectively, participated in the study.
In Part 1 of the study, gepotidacin was administered with food to healthy adults (≥ 18 years) in period 1 (1500 mg oral single dose), followed by period 2 (3000 mg x 2 oral doses Q12h) and period 3 (3000 mg x 2 oral doses Q6h).
In Part 2 of the study, gepotidacin was administered with food to adolescents (12 to < 18 years) at the same dose regimens as period 1 (1500 mg oral single dose) and period 3 (3000 mg x 2 oral doses Q6h).

[7] = Single-dose saliva, urine and plasma PK of gepotidacin in renal impairment and matched controls; assay type: in vivo, human
Protocol: as §2, §1

urogenital NG = conditions: cited from earlier work
urogenital NG isolates = conditions: cited from earlier work
[8] = single IV infusion of 1000 mg over 2 hours, AM versus ELF
[9] = 1500 mg BID, Day 4, 2 hours postdose
[10] = Period 1, 1500 mg oral single dose

SMILES: CO/N=C(\C(=O)N[C@@H]1C(=O)N2C(C(=O)O)=C(CSc3nc(=O)c(=O)[nH]n3C)CS[C@H]12)c1csc(N)n1 [ceftriaxone, reference compound]
- MIC (NG clinical isolate [1]; read-out: minimum inhibitory concentration [MIC]): 0.004 µg/mL (≈ 0.00721 µM)
- performance of controls in the hollow fibre infection model (NG isolate; isolate resistant to ciprofloxacin and susceptible to ceftriaxone, simulated 0.5 g oral ciprofloxacin, 0.25 g IM ceftriaxone): performed as expected

SMILES: O=c1ccc2ncc(=O)n3c2n1C[C@H]3CN1CCC(NCc2cc3c(cn2)OCCC3)CC1 [gepotidacin, (2R)-2-({4-[(3,4-Dihydro-2H-pyrano[2,3-c]pyridin-6-ylmethyl)amino]-1-piperidinyl}methyl)-1,2-dihydro-3H,8H-2a,5,8a-triazaacenaphthylene-3,8-dione]
- Kp ([2]; human, saliva / unbound plasma, stated across the renal and hepatic impairment studies, read-out: ratio of saliva AUC to unbound plasma AUC (RAUC)): ≥ 0.75
- urinary exposure (AUC[0-48]) relative to matched healthy controls ([2]; moderate hepatic impairment): approximately 3.2 fold
- urinary exposure (AUC[0-48]) relative to matched healthy controls ([2]; severe hepatic impairment): ~3.9 fold
- MIC (NG clinical isolate [3]): 0.5 µg/mL (≈ 1.11 µM)
- Kp ([4]; human, alveolar macrophages / free plasma, single IV infusion of 1000 mg over 2 hours, read-out: AUC(0-12) ratio of AM to free plasma): 178
- Kp ([4]; human, epithelial lining fluid / free plasma, single IV infusion of 1000 mg over 2 hours, read-out: AUC(0-12) ratio of ELF to free plasma): 1.84
- fraction unbound ([4]; human, plasma, read-out: gepotidacin free fraction): 0.67
- AM exposure AUC(0-12), higher than in ELF [4, 8]: ~97 fold
- AM exposure Cmax, higher than in ELF [4, 8]: approximately 120 fold
- MIC (NG clinical isolate [1]; read-out: gepotidacin MIC): 1 µg/mL (≈ 2.23 µM)
- MIC (NG clinical isolate [1]; read-out: gepotidacin agar MIC): 1 µg/mL (≈ 2.23 µM)
- doses preventing amplification of resistance within the system (NG isolate; gepotidacin-resistant subpopulation on Day 7): ≥ 4.5 g
- total daily doses that prevented resistance amplification (NG isolate; including 2 doses of 3g administered 8 or 12 hours apart): ≥ 4500 mg
- doses sterilizing the system (NG isolate; over the seven-day period, simulated single oral doses 0.75 to 12 g): ≥ 4.5 g
- Cervical concentration, Maximum [5, 9]: 4.25 µg/mL
- Cervical concentration, Mean [5, 9]: 1.03 µg/mL
- Cervical concentration, Minimum [5, 9]: 0.0190 µg/mL
- Free plasma concentration, Maximum [5, 9]: 7500 ng/mL
- Free plasma concentration, Mean [5, 9]: 3940 ng/mL
- Free plasma concentration, Minimum [5, 9]: 938 ng/mL
- Pharyngeal concentration, Maximum [5, 9]: 0.527 µg/mL
- Pharyngeal concentration, Mean [5, 9]: 0.140 µg/mL
- Pharyngeal concentration, Minimum [5, 9]: 0.0118 µg/mL
- Rectal concentration, Maximum [5, 9]: 90.90 µg/mL
- Rectal concentration, Mean [5, 9]: 12.3 µg/mL
- Rectal concentration, Minimum [5, 9]: 0.0989 µg/mL
- Cervical concentration, Maximum ([5]; 1500 mg BID, Day 4, Predose): 5.94 µg/mL
- Cervical concentration, Mean ([5]; 1500 mg BID, Day 4, Predose): 1.30 µg/mL
- Cervical concentration, Minimum ([5]; 1500 mg BID, Day 4, Predose): 0.0601 µg/mL
- Free plasma concentration, Maximum ([5]; 1500 mg BID, Day 4, Predose): 1330 ng/mL
- Free plasma concentration, Mean ([5]; 1500 mg BID, Day 4, Predose): 618 ng/mL
- Free plasma concentration, Minimum ([5]; 1500 mg BID, Day 4, Predose): 308 ng/mL
- Pharyngeal concentration, Maximum ([5]; 1500 mg BID, Day 4, Predose): 0.165 µg/mL
- Pharyngeal concentration, Mean ([5]; 1500 mg BID, Day 4, Predose): 0.0330 µg/mL
- Pharyngeal concentration, Minimum ([5]; 1500 mg BID, Day 4, Predose): 0.00275 µg/mL
- Rectal concentration, Maximum ([5]; 1500 mg BID, Day 4, Predose): 36.30 µg/mL
- Rectal concentration, Mean ([5]; 1500 mg BID, Day 4, Predose): 6.04 µg/mL
- Rectal concentration, Minimum ([5]; 1500 mg BID, Day 4, Predose): 0.0678 µg/mL
- discontinuations due to adverse events (AEs) ([5]; oral 1,500 mg BID for 5 days, uUTI participants): no discontinuations due to adverse events
- urine Ctau exposures ([5]; uUTI patients, 1500 mg BID, from Day 3 onwards): 322 to 352 µg/mL
- minimum gepotidacin urine concentrations ([5]; uUTI patients, remained above MIC over the 12-hour dosing interval): > 4 µg/mL
- tolerability ([6]; 1500 mg oral single dose, adults and adolescents, few mild GI AEs): generally well tolerated
- maximum concentration (Cmax), adolescents compared to adults [6, 10]: similar
- median area under the curve (AUC), adolescents compared to adults [6, 10]: slightly higher
- AUC following the second dose, adolescents versus adults ([6]; Period 3, Q6h regimen): higher
- Cmax following the second dose, adolescents versus adults ([6]; Period 3, Q6h regimen): similar
- subjects above the value of potential clinical concern, observed ([6]; adolescents Q6h, 3000 mg x 2 oral doses): 58%
- subjects above the value of potential clinical concern, observed ([6]; adults Q6h, 3000 mg x 2 oral doses): 46%
- subjects above the value of potential clinical concern, observed ([6]; adults Q12h, 3000 mg x 2 oral doses): 15%
- AUC0-t exposures following the first dose, Q12 versus Q6h ([6]; adults, 3000 mg dose level): similar
- accumulation ratios, Q6h as compared to Q12h ([6]; adults, 3000 mg x 2 oral doses): Higher
- safety issues related to QT or AchE-I ([6]; in vivo): No observed safety issues
- gepotidacin dose excreted in the urine ([7]; ESRD subjects on hemodialysis): Less than 2%
- gepotidacin dose removed in the urine (fe%) ([7]; End-Stage Renal Disease (ESRD) subjects not on hemodialysis): 7.9%
- gepotidacin dose removed in the urine (fe%) ([7]; moderate renal impairment subjects): 22.1%
- gepotidacin dose removed in the urine (fe%) ([7]; normal renal function subjects): 37.4%
- participants who failed therapy at the urogenital body site (urogenital NG; Phase II study, total): 3
- microbiological successes (bacterial eradication) (urogenital NG; of the 8 participants with D86N-positive baseline urogenital NG isolates): 5
- efficacy (bacterial eradication) against urogenital infection caused by NG (urogenital NG; single oral dose 1.5g (1500 mg)): ≥ 95%
- efficacy (bacterial eradication) against urogenital infection caused by NG (urogenital NG; single oral dose 3g (3000 mg)): ≥ 95%
- baseline gepotidacin MIC (urogenital NG isolates; 2 microbiological successes with D86N-positive baseline organisms): 1 µg/mL
- TOC gepotidacin MICs (urogenital NG isolates; 2 posttreatment isolates that had become resistant): ≥ 32 µg/mL
